Results taken from patent US20060100431A1, “Biologically active compounds” (Amura Therapeutics Limited, priority 2002, published 2006).

Columns and labels:
Format in all cases: biochemical
human cathepsin L = target: T1, human cathepsin L (Homo sapiens, UniProt P07711); experiment: Cathepsin L peptidase activity assay (Ki); conditions: read-out: Ki, inhibitors of cathepsin L
T1 construct: purchased CN Biosciences
In short: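 Run at 25±1° C with DMSO under 1%: buffer was 10 mM BTP pH 6.5 containing 1 mM EDTA, 1 mM CaCl2 and 5 mM 2-mercaptoethanol. Enzyme (1 nM cathepsin L) was added last to start hydrolysis of Ac-Phe-Arg-AMC held at KM^app (~20 μM), followed kinetically by fluorescence at 365/450 nm.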

human cathepsin B = target: T2, human cathepsin B (Homo sapiens, UniProt P07858); experiment: Cathepsin B peptidase activity assay (Ki); conditions: read-out: Ki, inhibitors of cathepsin B
T2 construct: purchased CN Biosciences
Description: Unless otherwise stated, all general chemicals and biochemicals were purchased from either the Sigma Chemical Company, Poole, Dorset, U.K or from Fisher Scientific UK, Loughborough, Leicestershire, U.K. Absorbance assays were carried out in flat-bottomed 96-well plates (Spectra; Greiner Bio-One Ltd., Stonehouse, Gloucestershire, U.K.) using a SpectraMax PLUS384 plate reader (Molecular Devices, Crawley, U.K.). […] Fluorescence assays were monitored using a SpectraMax Gemini fluorescence plate reader (Molecular Devices). For substrates employing either a 7-amino-4-methylcoumarin (AMC) or a 7-amino-4-trifluoromethylcoumarin (AFC) fluorophore, assays were monitored at an excitation wavelength of 365 nm and an emission wavelength of 450 nm and the fluorescence plate reader calibrated with AMC. For substrates employing a 3-amino-benzoyl (Abz) fluorophore, assays were monitored at an excitation wavelength of 310 nm and an emission wavelength of 445 nm; the fluorescence plate reader calibrated with 3-amino-benzamide (Fluka). Unless otherwise indicated, all the peptidase substrates were purchased from Bachem UK, St Helens, Merseyside, UK. […] Hydroxyethylpiperazine ethanesulfonate (HEPES), tris-hydroxylmethyl aminomethane (tris) base, bis-tris-propane and all the biological detergents (e.g. CHAPS, zwittergents, etc.) were purchased from CN Biosciences UK, Beeston, Nottinghamshire, U.K. Glycerol was purchased from Amersham Pharmacia Biotech, Little Chalfont, Buckinghamshire, U.K. Stock solutions of substrate or inhibitor were made up to 10 mM in 100% dimethylsulfoxide (DMSO) (Rathburns, Glasgow, U.K.) and diluted as appropriately required. In all cases the DMSO concentration in the assays was maintained at less than 1% (vol./vol.).
Enzyme was added as required to initiate the reaction and the activity, as judged by the change in fluorescence upon conversion of substrate to product, was monitored over time. All assays were carried out at 25±1° C.
Bovine cathepsin S, human cathepsin L, human cathepsin H and human cathepsin B were obtained from CN Biosciences. Recombinant human cathepsin S, human cathepsin K and human cathepsin X were obtained from Dr. Boris Turk (Josef Stefan Institute, Ljubljana, Slovenia). Unless otherwise stated, all peptidase activity assays were carried out in 10 mM bis-tris-propane (BTP), pH 6.5 containing 1 mM EDTA, 5 mM 2-mercaptoethanol and 1 mM CaCl2.
The apparent inhibition constant (Ki) for each compound was determined on the basis that inhibition was reversible and occurred by a pure-competitive mechanism. […] [formula]
[formula] Ki^app=Ki(1+[So]/KM^app) (4)
Curves were fitted by non-linear regression analysis (Prism) using a fixed value for the enzyme concentration.

Wild-type cruzipain = Wild-type cruzipain (Trypanosoma cruzi, UniProt P25779); experiment: Trypanosoma cruzi cruzipain peptidase activity assay (Ki); conditions: read-out: Ki, inhibitors of cruzain and cruzipains
In short: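 Native cruzipain from T. cruzi Dm28 epimastigotes, 2.5 nM, in 100 mM sodium phosphate pH 6.75 with 1 mM EDTA and 10 mM L-cysteine, 25 °C, DMSO <1%. Rates taken from continuous fluorogenic substrate read; Ki by regression assuming reversible pure-competitive inhibition.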

CPB2.8ΔCTE = target: T3, CPB2.8ΔCTE (Leishmania mexicana, UniProt P36400); experiment: Leishmania mexicana cysteine protease B (CPB) peptidase activity assay (Ki); conditions: Ki, inhibitors of Leismania mexicana CPB protease
T3 construct: Wild-type recombinant CPB without the C-terminal extention (i.e. CPB2.8ΔCTE); Dr. Jeremy Mottram (Wellcome Centre for Molecular Parasitology, University of Glasgow)
In short: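 Apparent Ki was derived by regression of activity against inhibitor concentration, assuming pure-competitive reversible binding. Reaction: 0.25 nM CPB lacking the C-terminal extension, pH 5.5 acetate buffer (1 mM EDTA, 200 mM NaCl, 10 mM DTT), 25 °C, followed by continuous substrate fluorescence.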

T3 sequence (P36400 126-343, stated change not applied): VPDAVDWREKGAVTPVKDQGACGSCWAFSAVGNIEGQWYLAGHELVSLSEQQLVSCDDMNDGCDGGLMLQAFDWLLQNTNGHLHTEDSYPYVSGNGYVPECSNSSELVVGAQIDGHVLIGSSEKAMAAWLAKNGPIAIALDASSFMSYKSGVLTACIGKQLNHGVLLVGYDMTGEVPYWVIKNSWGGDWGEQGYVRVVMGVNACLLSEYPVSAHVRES
T1 sequence (P07711 114-333): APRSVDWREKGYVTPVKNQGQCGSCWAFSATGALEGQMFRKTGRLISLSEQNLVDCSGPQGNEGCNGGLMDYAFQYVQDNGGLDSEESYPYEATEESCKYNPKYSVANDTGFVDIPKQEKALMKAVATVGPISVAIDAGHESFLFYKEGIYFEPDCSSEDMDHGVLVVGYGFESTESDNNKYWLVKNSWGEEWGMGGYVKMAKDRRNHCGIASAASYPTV
Chain of Wild-type cruzipain (P25779 whole entry): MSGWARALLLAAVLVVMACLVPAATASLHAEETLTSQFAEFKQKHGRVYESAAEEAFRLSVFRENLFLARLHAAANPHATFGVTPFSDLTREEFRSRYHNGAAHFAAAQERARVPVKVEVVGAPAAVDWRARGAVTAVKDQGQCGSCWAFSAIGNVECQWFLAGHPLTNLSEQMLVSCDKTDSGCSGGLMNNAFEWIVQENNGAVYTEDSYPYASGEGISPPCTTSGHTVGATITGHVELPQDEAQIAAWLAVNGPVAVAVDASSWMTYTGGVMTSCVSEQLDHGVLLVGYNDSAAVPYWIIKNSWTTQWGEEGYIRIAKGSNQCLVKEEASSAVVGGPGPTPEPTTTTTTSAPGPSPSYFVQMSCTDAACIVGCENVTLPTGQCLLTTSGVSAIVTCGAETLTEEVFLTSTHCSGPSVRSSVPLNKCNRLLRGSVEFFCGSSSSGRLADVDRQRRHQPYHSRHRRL

Ki (human cathepsin L) [µM]	Ki (human cathepsin B) [µM]	Ki (Wild-type cruzipain) [µM]	Compound	Ki (CPB2.8ΔCTE) [µM]
< 5	< 5	< 5	CS(=O)(=O)c1ccccc1C(=O)N1CC(=O)[C@@H]2[C@H]1CCN2C(=O)[C@H](CSCc1ccccc1)NC(=O)c1ccsc1 [Example 261, (3aR,6aS)-Thiophene-3-carboxylic acid {(1R)-1-benzylsulfanylmethyl-2-[4-(2-methanesulfonyl-benzoyl)-6-oxo-hexahydro-pyrrolo[3,2-b]pyrrol-1-yl]-2-oxo-ethyl}-amide]	–
< 5	< 5	< 5	O=C(N[C@@H](CC1CCCCC1)C(=O)N1CC[C@@H]2[C@H]1C(=O)CN2C(=O)c1cccc2ccccc12)c1ccsc1 [Example 255, (3aR,6aS)-Thiophene-3-carboxylic acid {(1S)-1-cyclohexylmethyl-2-[4-(naphthalene-1-carbonyl)-6-oxo-hexahydro-pyrrolo[3,2-b]pyrrol-1-yl]-2-oxo-ethyl}-amide]	–
< 5	< 5	–	CS(=O)(=O)c1cccc(C(=O)N2CC(=O)[C@@H]3[C@H]2CCN3C(=O)[C@H](CSCc2ccccc2)NC(=O)c2ccsc2)c1 [Example 262, (3aR,6aS)-Thiophene-3-carboxylic acid {(1R)-1-benzylsulfanylmethyl-2-(4-(3-methanesulfonyl-benzoyl)-6-oxo-hexahydro-pyrrolo[3,2-b]pyrrol-1-yl)-2-oxo-ethyl}-amide]	–
< 5	< 5	< 5	Cc1cccc(C(=O)N2CC(=O)[C@@H]3[C@H]2CCN3C(=O)[C@H](CC2CCCCC2)NC(=O)c2ccsc2)c1 [Example 292, (3aR,6aS)-Thiophene-3-carboxylic acid {(1S)-1-cyclohexylmethyl-2-[4-(3-methyl-benzoyl)-6-oxo-hexahydro-pyrrolo[3,2-b]pyrrol-1-yl]-2-oxo-ethyl}-amide]	–
< 5	< 5	< 5	CC(C)C[C@H](NC(=O)c1cc2ccccc2s1)C(=O)N1CC[C@@H]2[C@H]1C(=O)CN2C(=O)c1cccnc1 [Example 15, (3aR,6aS)-Benzo[b]thiophene-2-carboxylic acid {(1S)-3-methyl-1-[6-oxo-4-(pyridine-3-carbonyl)-hexahydro-pyrrolo[3,2-b]pyrrole-1-carbonyl]-butyl}-amide]	–
< 5	< 5	–	O=C(N[C@@H](CSCc1ccccc1)C(=O)N1CC[C@@H]2[C@H]1C(=O)CN2C(=O)c1ccccc1)c1ccsc1 [Example 251, (3aR,6aS)-Thiophene-3-carboxylic acid [(1R)-2-(4-benzoyl-6-oxo-hexahydro-pyrrolo[3,2-b]pyrrole-1-yl)-1-benzylsulfanylmethyl-2-oxo-ethyl]-amide]	–
< 5	< 5	–	O=C(N[C@@H](CSCc1ccccc1)C(=O)N1CC[C@@H]2[C@H]1C(=O)CN2C(=O)C1CCCCC1)c1ccsc1 [Example 273, (3aR,6aS)-Thiophene-3-carboxylic acid [(1R)-1-benzylsulfanylmethyl-2-(4-cyclohexanecarbonyl-6-oxo-hexahydro-pyrrolo[3,2-b]pyrrol-1-yl)-2-oxo-ethyl]-amide]	–
< 5	< 5	< 5	O=C(N[C@@H](CC1CCCCC1)C(=O)N1CC[C@@H]2[C@H]1C(=O)CN2C(=O)c1ccccc1)c1csc2ccccc12 [Example 254, (3aR,6aS)-Benzo[b]thiophene-3-carboxylic acid [(1S)-2-(4-benzoyl-6-oxo-hexahydro-pyrrolo[3,2-b]pyrrole-1-yl)-1-cyclohexylmethyl-2-oxo-ethyl]-amide]	–
< 5	< 5	–	O=C(N[C@@H](CC1CCCCC1)C(=O)N1CC[C@@H]2[C@H]1C(=O)CN2C(=O)c1ccccc1)c1cccc(Oc2ccccc2)c1 [Example 259, (3aR,6aS)-N-[(1S)-2-(4-Benzoyl-6-oxo-hexahydro-pyrrolo[3,2-b]pyrrol-1-yl)-1-cyclohexylmethyl-2-oxo-ethyl]-3-phenoxy-benzamide]	–
< 5	< 5	–	O=C(N[C@@H](CSCc1ccccc1)C(=O)N1CC[C@@H]2[C@H]1C(=O)CN2C(=O)c1ccccc1)C(c1ccccc1)c1ccccc1 [Example 269, (3aR,6aS)-N-[(1R)-2-(4-Benzoyl-6-oxo-hexahydro-pyrrolo[3,2-b]pyrrol-1-yl)-1-benzylsulfanylmethyl-2-oxo-ethyl]-2,2-diphenyl-acetamide]	–
< 5	< 5	< 5	O=C(N[C@@H](CC1CCCCC1)C(=O)N1CC[C@@H]2[C@H]1C(=O)CN2C(=O)c1ccccc1)c1ccccc1 [Example 290, (3aR,6aS)-N-[(1S)-2-(4-Benzoyl-6-oxo-hexahydro-pyrrolo[3,2-b]pyrrol-1-yl)-1-cyclohexylmethyl-2-oxo-ethyl]-benzamide]	–
< 5	< 5	–	Cc1cccc(C(=O)N2CC(=O)[C@@H]3[C@H]2CCN3C(=O)[C@H](CSCc2ccccc2)NC(=O)c2ccsc2)c1 [Example 275, (3aR,6aS)-Thiophene-3-carboxylic acid {(1R)-1-benzylsulfanylmethyl-2-[4-(3-methyl-benzoyl)-6-oxo-hexahydro-pyrrolo[3,2-b]pyrrol-1-yl]-2-oxo-ethyl}-amide]	–

Compound	Ki (human cathepsin L) [µM]	Ki (human cathepsin B) [µM]	Ki (Wild-type cruzipain) [µM]	Ki (CPB2.8ΔCTE) [µM]
CC(C)C[C@H](NC(=O)c1ccc(N(C)C)cc1)C(=O)N1CC[C@@H]2[C@H]1C(=O)CN2C(=O)C1CCCCC1 [Example 104, (3aR,6aS)-N-[(1S)-1-(4-Cyclohexanecarbonyl-6-oxo-hexahydro-pyrrolo[3,2-b]pyrrole-1-carbonyl)-3-methyl-butyl]-4-dimethylamino-benzamide]	< 5	< 5	< 5	< 5
CC(C)C[C@H](NC(=O)c1ccc(N(C)C)cc1)C(=O)N1CC[C@@H]2[C@H]1C(=O)CN2C(=O)c1cccc(Cl)c1 [Example 73, (3aR,6aS)-N-{(1S)-1-[4-(3-Chloro-benzoyl)-6-oxo-hexahydro-pyrrolo[3,2-b]pyrrole-1-carbonyl]-3-methyl-butyl}-4-dimethylamino-benzamide]	< 5	< 5	< 5	< 5
CC(C)C[C@H](NC(=O)C(c1ccccc1)c1ccccc1)C(=O)N1CC[C@@H]2[C@H]1C(=O)CN2C(=O)c1csc2ccccc12 [Example 271, (3aR,6aS)-N-{(1S)-1-[4-(Benzo[b]thiophene-3-carbonyl)-6-oxo-hexahydro-pyrrolo[3,2-b]pyrrole-1-carbonyl]-3-methyl-butyl}-2,2-diphenyl-acetamide]	< 5	< 5	< 5	< 5
O=C(N[C@@H](CC1CCCCC1)C(=O)N1CC[C@@H]2[C@H]1C(=O)CN2C(=O)c1ccccc1)c1ccc2ncsc2c1 [Example 286, (3aR,6aS)-Benzothiazole-6-carboxylic acid [(1S)-2-(4-benzoyl-6-oxo-hexahydro-pyrrolo[3,2-b]pyrrole-1-yl)-1-cyclohexylmethyl-2-oxo-ethyl]-amide]	< 5	< 5	< 5	< 5
CC(C)C[C@H](NC(=O)c1ccc(C(C)(C)C)cc1)C(=O)N1CC[C@@H]2[C@H]1C(=O)CN2C(=O)c1csc2ccccc12 [Example 31]	< 5	< 5	< 5	< 5
